This note sets out measurements from patent US12338256B2, “Aza-tetracyclic oxazepine compounds and uses thereof” (Genentech, Inc., priority 2022, dated 2025).

pIC50: −log10 of the molar value. Where two headings read alike, the source gives them in different places.

Common to all, as to assay type: cell-based
Assay [1] concerns AsPC-1 (homozygous mutant KRAS G12D human pancreatic cell line). The assay can be described thus: KRAS 3D-Cell Proliferation Assay, AsPC-1 (Example 503). Particulars: AsPC-1 3D culture, 7 days, CellTiter-Glo 3D, read-out: Prolif AsPC-1 3D ATP IC50. The protocol: Example 503: KRAS 3D-Cell Proliferation Assays. Cellular potencies of compounds are assessed by evaluating inhibition of proliferation in 3D cultures of homozygous mutant KRAS G12D human pancreatic cell lines (AsPC-1 and HPAC) as compared to a KRAS wild type human lung adenocarcinoma cell line (PC-9 and/or H1975). Cells are seeded into 384-well black round-bottom, ultra-low attachment assay plates in 50 uL cell growth medium (RPMI-1640 with 10% fetal bovine serum and 2 mM L-glutamine). After overnight incubation at 37° C. and 5% CO2, compounds solubilized in DMSO are added as dilution series to the wells in a total volume of 150 nL (0.3% DMSO final). The cells are incubated for 7 days at 37° C. and 5% CO2. Cell proliferation is quantitated by addition of 40 uL/well of CellTiter-GloÒ 3D (Promega), and the well contents are mixed 20× at high speed using liquid handling automation workstation (Bravo with 384-well head) and centrifuged at 1500 rpm for 2 minutes to eliminate bubbles. This reagent in combination with mechanical disruption releases the cellular ATP to promote activity in a luciferase-based enzyme/substrate chemiluminescent detection system. After a 30-minute incubation under ambient conditions with shaking and an additional 10 minutes without shaking, the luminescence is read on a plate reader (e.g., EnVision [PerkinElmer]). The results are normalized to percent inhibition based on the following control samples: DMSO (0% inhibition) and 1 μM staurosporine (100% inhibition). The normalized luminescence results are plotted against compound concentration, and the data are fit to a 4-parameter Hill equation to determine the IC50 values.
(In general: Cellular ATP, detected with luciferase, serves as a proxy for viable cell number.)

The subject of assay [2] is H1975 (KRAS wild type human lung adenocarcinoma cell line). The assay can be described thus: KRAS 3D-Cell Proliferation Assay, H1975 (Example 503). To be noted: H1975 3D culture, 7 days, CellTiter-Glo 3D, read-out: Prolif H1975 3D ATP IC50. A digest of the protocol: (§1)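 Luminescent ATP readout (CellTiter-Glo 3D, with mechanical mixing) measures growth of cells cultured in 3D after a 7-day compound exposure at 37° C. Percent inhibition is referenced to vehicle (DMSO) and 1 μM staurosporine controls, and IC50 comes from a four-parameter Hill fit.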

In assay [3] the test system is HPAC (homozygous mutant KRAS G12D human pancreatic cell line). Kind of assay: KRAS 3D-Cell Proliferation Assay, HPAC (Example 503). Particulars: HPAC 3D culture, 7 days, CellTiter-Glo 3D, read-out: Prolif HPAC 3D ATP IC50. The essentials:
as §1

In general, pIC50 refers to the IC50 on a negative log10 scale, so that one unit is a factor of ten.

Regarding `Cc1cc(N)c(F)c(-c2nc3c4c(ncnc4c2Cl)N2C[C@H]4CC[C@H](N4)[C@H]2[C@H](C)O3)c1C(F)(F)F` (atropisomer, axis not shown) [Compound 95, 3-((5S,5aS,6S,9R)-1-chloro-5-methyl-5a,6,7,8,9,10-hexahydro-5H-4-oxa-3,10a,11,13,14-pentaaza-6,9-methanonaphtho[1,8-ab]heptalen-2-yl)-2-fluoro-5-methyl-4-(trifluoromethyl)aniline], the pIC50 in assay [1] (Homo sapiens, ASPC1, 168 h) was 6.70.
For the compound `C[C@@H]1Oc2nc(-c3c(Cl)c(N)c(F)c(F)c3C(F)(F)F)c(F)c3nc(OC[C@@]45CCCN4C[C@H](F)C5)nc(c23)N2C[C@H]3CC[C@H](N3)[C@@H]12` (atropisomer, axis not shown; (aS)) [Compound 106, 2-Chloro-5,6-difluoro-3-((5S,5aS,6S,9R)-1-fluoro-12-(((2R,7aS)-2-fluorotetrahydro-1H-pyrrolizin-7a(5H)-yl)methoxy)-5-methyl-5a,6,7,8,9,10-hexahydro-5H-4-oxa-3,10a,11,13,14-pentaaza-6,9-methanonaphtho[1,8-ab]heptalen-2-yl)-4-(trifluoromethyl)aniline], the pIC50 is 8.27 in assay [1] (Homo sapiens, ASPC1, 168 h) and 6.11 in assay [2] (Homo sapiens, NCI-H1975, 168 h).
For the compound `Cc1c(F)c(N)cc(-c2nc3c4c(nc(OC[C@]5(CN6CC7(COC7)C6)CC5(F)F)nc4c2F)N2C[C@H]4CC[C@H](N4)[C@H]2[C@H](C)O3)c1C(F)(F)F` (mixture of isomers) [165 a], the negative-log IC50 (pIC50) was 9.20 in assay [3], 9.22 in assay [1] and 6.43 in assay [2].
Turning to `Cc1c(F)c(N)cc(-c2nc3c4c(nc(OCC5COCC6CCCN65)nc4c2F)N2CC4CCC(N4)C2C(C)O3)c1C(F)(F)F` (single isomer, unassigned) [121 (isomer 2)], the pIC50 in assay [1] (Homo sapiens, ASPC1, 168 h) was 7.39.
On the same count and under the same terms, the figure for `Cc1c(F)c(N)cc(-c2nc3c4c(nc(OCC56CCCC5N(C)CCC6)nc4c2F)N2C[C@H]4CC[C@H](N4)[C@H]2[C@H](C)O3)c1C(F)(F)F` (single isomer, unassigned) [126 (isomer 1)] is 9.22; for `Cc1c(F)c(N)cc(-c2nc3c4c(nc(OCC56CCCN5CC(F)C6F)nc4c2F)N2C[C@H]4CC[C@H](N4)[C@H]2[C@H](C)O3)c1C(F)(F)F` (single isomer, unassigned) [143 (isomer 2)] it is 8.39.
For `Cc1c(F)c(N)cc(-c2nc3c4c(nc(OC[C@@]56CCCN5C[C@H](F)C6)nc4c2F)N2C[C@H]4CC[C@H](N4)[C@@H]2C(C)O3)c1C(F)(F)F` (single isomer, unassigned) [237 (isomer 2)], the pIC50 in assay [3] (Homo sapiens, HPAC, 168 h) is 8.44; in assay [1] (Homo sapiens, ASPC1, 168 h), 6.70; in assay [2] (Homo sapiens, NCI-H1975, 168 h), 5.98.
Consider `Cc1c(F)c(N)cc(-c2nc3c4c(nc(OCC56CCN(C)C5COC6)nc4c2F)N2C[C@H]4CC[C@H](N4)[C@H]2[C@H](C)O3)c1C(F)(F)F` (single isomer, unassigned) [258 (isomer 1)], for which the pIC50 was 8.30 in assay [3] (Homo sapiens, HPAC, 168 h); 8.09 in assay [1] (Homo sapiens, ASPC1, 168 h); 5.81 in assay [2] (Homo sapiens, NCI-H1975, 168 h).
As for `Cc1c(F)c(N)cc(-c2nc3c4c(nc(OCC56CCN5CC(F)(F)C6)nc4c2F)N2C[C@H]4CC[C@H](N4)[C@H]2[C@H](C(F)(F)F)O3)c1C(F)(F)F` (single isomer, unassigned) [263 (diast. 1)], the pIC50 in assay [1] (Homo sapiens, ASPC1, 168 h) is 8.15.
Turning to `Cc1cc(N)c(F)c(-c2nc3c4c(nc(OCC56CCN5CC(F)(F)C6)nc4c2F)N2C[C@H]4CC[C@H](N4)[C@H]2[C@H](C)O3)c1` (stereo in doubt) [Compound 23, 3-((5S,5aS,6S,9R)-12-((3,3-difluoro-1-azabicyclo[3.2.0]heptan-5-yl)methoxy)-1-fluoro-5-methyl-5a,6,7,8,9,10-hexahydro-5H-4-oxa-3,10a,11,13,14-pentaaza-6,9-methanonaphtho[1,8-ab]heptan-2-yl)-2-fluoro-5-methylaniline], the pIC50 in assay [1] was not above 4.70; in assay [1] (Homo sapiens, ASPC1, 168 h), 4.85.
On to `Cc1c(F)c(N)cc(-c2nc3c4c(nc(OC[C@]5(CN6CC7(COC7)C6)CC5(F)F)nc4c2F)N2C[C@H]4CC[C@H](N4)[C@H]2[C@H](C(F)(F)F)O3)c1C(F)(F)F` [255 a], for which the pIC50 in assay [1] was 8.18.
Regarding `C#Cc1c(F)ccc2cccc(-c3nc4c5c(nc(OCC67CCN6CC(F)(F)C7)nc5c3F)N3C[C@H]5CC[C@H](N5)[C@H]3[C@H](C)O4)c12` (stereo partly drawn) [Compound 22, (5S,5aS,6S,9R)-12-((3,3-difluoro-1-azabicyclo[3.2.0]heptan-5-yl)methoxy)-2-(8-ethynyl-7-fluoronaphthalen-1-yl)-1-fluoro-5-methyl-5a,6,7,8,9,10-hexahydro-5H-4-oxa-3,10a,11,13,14-pentaaza-6,9-methanonaphtho[1,8-ab]heptalene], the pIC50 in assay [3] (Homo sapiens, HPAC, 168 h) is 6.86; in assay [1] (Homo sapiens, ASPC1, 168 h) it was 7.22; in assay [2] (Homo sapiens, NCI-H1975, 168 h), 4.70.
Taken in the same sequence, the figures for `Cc1c(F)c(N)cc(-c2nc3c4c(nc(OC[C@@]56CCCN5C[C@H](F)C6)nc4c2F)N2C[C@H]4CC[C@H](N4)[C@H]2CO3)c1C(F)(F)F` [Compound 61, 2-Fluoro-5-((5aS,6S,9R)-1-fluoro-12-(((2R,7aS)-2-fluorotetrahydro-1H-pyrrolizin-7a(5H)-yl)methoxy)-5a,6,7,8,9,10-hexahydro-5H-4-oxa-3,10a,11,13,14-pentaaza-6,9-methanonaphtho[1,8-ab]heptalen-2-yl)-3-methyl-4-(trifluoromethyl)aniline] were 7.67, 7.35 and 5.58.
Taken in the same sequence, the figures for `Cc1c(F)c(N)cc(-c2nc3c4c(nc(OC[C@@]56CCCN5CC5(CC5(F)F)C6)nc4c2F)N2C[C@H]4CC[C@H](N4)[C@H]2[C@H](C)O3)c1C(F)(F)F` (stereo partly drawn) [Compound 62, 5-((5S,5aS,6S,9R)-12-(((7a′S)-2,2-Difluorodihydro-1′H,3′H-spiro[cyclopropane-1,2′-pyrrolizin]-7a′(5′H)-yl)methoxy)-1-fluoro-5-methyl-5a,6,7,8,9,10-hexahydro-5H-4-oxa-3,10a,11,13,14-pentaaza[6,9]methanonaphtho[1,8-ab]heptalen-2-yl)-2-fluoro-3-methyl-4-(trifluoromethyl)aniline] were 9.58, 9.52 and 6.95.
Regarding `Cc1c(F)c(N)cc(-c2nc3c4c(nc(OC[C@@]56CCCN5C/C(=C\F)C6)nc4c2F)N2C[C@H]4CC[C@H](N4)[C@H]2[C@H](C)O3)c1C(F)(F)F` [Compound 64, 2-fluoro-5-((5S,5aS,6S,9R)-1-fluoro-12-(((S,Z)-2-(fluoromethylene)tetrahydro-1H-pyrrolizin-7a(5H)-yl)methoxy)-5-methyl-5a,6,7,8,9,10-hexahydro-5H-4-oxa-3,10a,11,13,14-pentaaza-6,9-methanonaphtho[1,8-ab]heptalen-2-yl)-3-methyl-4-(trifluoromethyl)aniline], the pIC50 in assay [3] (Homo sapiens, HPAC, 168 h) is 9.34; in assay [1] (Homo sapiens, ASPC1, 168 h), 9.05; in assay [2] (Homo sapiens, NCI-H1975, 168 h) it was 6.63.
For the compound `CO[C@H]1CN(CC2(COc3nc4c5c(nc(-c6cc(N)nc(C)c6C(F)(F)F)c(F)c5n3)O[C@@H](C)[C@@H]3[C@@H]5CC[C@H](CN43)N5)CC2)C[C@@H]1F` [Compound 291, 4-((5S,5aS,6S,9R)-1-fluoro-12-((1-(((3S,4S)-3-fluoro-4-methoxypyrrolidin-1-yl)methyl)cyclopropyl)methoxy)-5-methyl-5a,6,7,8,9,10-hexahydro-5H-4-oxa-3,10a,11,13,14-pentaaza-6,9-methanonaphtho[1,8-ab]heptalen-2-yl)-6-methyl-5-(trifluoromethyl)pyridin-2-amine], the pIC50 in assay [3] (Homo sapiens, HPAC, 168 h) is 8.39; in assay [2] (Homo sapiens, NCI-H1975, 168 h) it was 4.91.
